This data set has as its system GCGR mRNA. Put plainly: GCGR mRNA levels in liver and estimated ED50, C57/BL6 mice, single i.p. dose of MOE and methyleneoxy BNA gapmers (Tables 44, 45). The data set is classed as in vivo, mouse. As to conditions: liver. The protocol:
Eight-week old male C57/BL6 mice (Jackson Laboratory, Bar Harbor, Me.) were administered a single dose of GCGR antisense compound by intraperitonel (i.p.) injection at a concentration of 10, 3.2, 1, and 0.32 μmol·kg. Each dose group consisted of four animals. Shown in Table 43 are the sequences, motifs and conjugates of the GCGR antisense compounds used in this study. Bolded residues indicate 2′-O-methoxyethyl (2′-MOE) modifications and the italicized residues indicate methyleneoxy (4′-CH2—O-2′) BNA modifications. All antisense compounds comprise phosphorothioate internucleoside linkages throughout and each cytosine is replaced with 5-methylcytosine. GCGR antisense compounds target published GCGR nucleic acids, including Genbank Accession No. BC031885.1 (SEQ ID NO: 7).
To determine whether the phenotypic changes shown above correlated with a decrease in GCGR mRNA, treated animals were evaluated for levels of target mRNA in liver by RT, real time PCR according to methods described herein. Table 44 show results from direct comparisons of the antisense compounds targeting GCGR nucleic acid for their effect on target expression. Results are expressed as percent of saline control.

Strand notation (5' to 3'): a small letter for the sugar, then the base; units joined by * are phosphorothioate-linked, units joined directly phosphodiester-linked; [ ] holds rarer units or linkages, { } end groups; capitals alone tell only the bases. e = 2'-O-(2-methoxyethyl) (MOE); [5mC] = 5-methylcytosine; d = 2'-deoxy (DNA)

As for “148364 (antisense eT*eG*e[5mC]*eA*e[5mC]*dT*dT*dT*dG*dT*dG*dG*dT*dA*d[5mC]*e[5mC]*eA*eA*eG*eG) [compound 148364]”, the “GCGR mRNA levels” value is 105% of saline control (0.32 μmol/kg single i.p.), 106% of saline control (1 μmol/kg single i.p.), 73% of saline control (3.2 μmol/kg single i.p.) and 38% of saline control (10 μmol/kg single i.p.).

Source of the values: patent US8372967B2, “Compounds and methods for modulating expression of GCCR” (Isis Pharmaceuticals, Inc., priority 2006, dated 2013).
